In brackets after ≈: the same amount, converted by molar mass.

The first series is described as follows: Oral bioavailability in Sprague-Dawley rat at 5 mg/kg. The conditions noted are these: in vivo. In kind it is ADME, organism-based.
Usually bioavailability stands for the share of a dose that reaches the circulation, judged against a reference dose that is usually intravenous. Turning to `C[C@H](C#N)NC(=O)c1cccc(-c2cc(-c3ccc(CNC4CCOCC4)cc3)on2)c1`, the bioavailability turned out to be 38%.

A further series can be described thus: AUC (0 to 8 hrs) in Sprague-Dawley rat at 2 mg/kg, iv or 5 mg/kg, po. The format is ADME, organism-based. The conditions noted are these: plasma.
Usually AUC(0-t) stands for the area under the concentration-time curve up to a stated or last time point. A higher AUC(0-t) goes with more exposure. Take `C[C@H](C#N)NC(=O)c1cccc(-c2cc(-c3ccc(CNC4CCOCC4)cc3)on2)c1`: the exposure AUC(0-t) is 840 nM·h.

A short description of a further series: Volume of distribution at steady state in Sprague-Dawley rat at 2 mg/kg, iv or 5 mg/kg, po. To be noted: in vivo, read-out: Vdss. In kind it is ADME, organism-based.
Regarding `C[C@H](C#N)NC(=O)c1cccc(-c2cc(-c3ccc(CNC4CCOCC4)cc3)on2)c1`, the Vd was found to be 6 L/kg.

The nature of a further series: Solubility of the compound. The format is physicochemical.
Settings: not given
Usually solubility stands for how much of the substance goes into solution per volume. Low values mean little dissolved substance, high ones much dissolved substance. For the compound `CCCNC(=O)c1cccc(-c2cc(-c3ccc(N4CCN(C)CC4)cc3)[nH]n2)c1`, the concentration in solution (solubility) was 330 µM (≈ 133 µg/mL).

For the compound `COCCNCc1ccc(-c2cc(-c3cccc(C(=O)NC(C)C)c3)n[nH]2)cc1`, the solubility came to 910 µM (≈ 357 µg/mL). Same read-out and setting: as for `CC(C)NC(=O)c1cccc(-c2cc(-c3ccc(CNC4CC4)cc3)[nH]n2)c1`, the figure is 220 µM (≈ 82.4 µg/mL); as for `CC(C)NC(=O)c1cccc(-c2cc(-c3ccc(N4CCN(C)CC4)cc3)[nH]n2)c1`, 270 µM (≈ 109 µg/mL); as for `CC(C)NC(=O)c1cccc(-c2cc(-c3ccc(N4CCN(C)CC4)c(Br)c3)[nH]n2)c1`, 40 µM (≈ 19.3 µg/mL). On the same count and under the same terms, as for `CC(C)NC(=O)c1cccc(-c2cc(-c3ccc(N4CCN(C)CC4)c(-c4ccccc4)c3)[nH]n2)c1`, the figure is less than 10 µM; as for `CC(C)NC(=O)c1cccc(-c2cc(-c3ccc(N4CCN(C)CC4)c(-c4ccncc4)c3)[nH]n2)c1`, less than 10 µM; as for `CN1CCN(c2ccc(-c3cc(-c4cccc(C(=O)NCC#N)c4)n[nH]3)cc2)CC1`, 50 µM (≈ 20 µg/mL). `CN1CCN(c2ccc(-c3cc(-c4cccc(C(=O)NCC#N)c4)n[nH]3)cc2Br)CC1`: the solubility was less than 10 µM.

`CN1CCN(c2ccc(-c3cc(-c4cccc(C(=O)NCCC#N)c4)n[nH]3)cc2)CC1` yielded a solubility of 650 µM (≈ 269 µg/mL).

The compound `COCCNC(=O)c1cccc(-c2cc(-c3ccc(N4CCN(C)CC4)cc3)[nH]n2)c1` came in with a solubility of 760 µM (≈ 319 µg/mL). The solubility values of the last two compounds are within 1.5-fold of each other. `CN1CCN(c2ccc(-c3cc(-c4cccc(C(=O)NCCO)c4)n[nH]3)cc2)CC1` came in with a solubility of 170 µM (≈ 68.9 µg/mL). Against the preceding compound, the solubility is about 4.5-fold lower.

Compound `CN(C)CCNC(=O)c1cccc(-c2cc(-c3ccc(N4CCN(C)CC4)cc3)[nH]n2)c1` yielded a solubility greater than 960 µM.

With `CN1CCN(c2ccc(-c3cc(-c4cccc(C(=O)NCC(F)(F)F)c4)n[nH]3)cc2)CC1`, the solubility came to 170 µM (≈ 75.4 µg/mL).

Regarding `CN1CCN(c2ccc(-c3cc(-c4cccc(C(=O)NCC#N)c4)no3)cc2)CC1`, the solubility was less than 10 µM. Still for that read-out and setting: with `C[C@H](C#N)NC(=O)c1cccc(-c2cc(-c3ccc(N4CCN(C)CC4)cc3)on2)c1` the figure was less than 10 µM; with `C[C@@H](C#N)NC(=O)c1cccc(-c2cc(-c3ccc(N4CCN(C)CC4)cc3)on2)c1`, less than 10 µM. Same read-out and setting: as for `CC(C)NCc1ccc(-c2cc(-c3cccc(C(=O)NC(C)C)c3)[nH]n2)cc1`, the figure is greater than 970 µM; as for `CC(C)NC(=O)c1cccc(-c2cc(-c3ccc(CNCC(F)(F)F)cc3)[nH]n2)c1`, less than 10 µM. Still for that read-out and setting: with `CC(C)NCc1ccc(-c2cc(-c3cccc(C(=O)N[C@H](C)C#N)c3)[nH]n2)cc1` the figure was greater than 990 µM; with `CC(C)NCc1ccc(-c2cc(-c3cccc(C(=O)N[C@H](C)C#N)c3)no2)cc1`, greater than 870 µM. `CC(C)NC(=O)c1cccc(-c2cc(-c3ccc(CNC4CCOCC4)cc3)on2)c1` had a solubility of 140 µM (≈ 58.7 µg/mL). The same measure, in the same setting: as for `N#CCNC(=O)c1cccc(-c2cc(-c3ccc(CNC4CCOCC4)cc3)on2)c1`, the figure is 170 µM (≈ 70.8 µg/mL); as for `CC(C)(C#N)NC(=O)c1cccc(-c2cc(-c3ccc(CNC4CCOCC4)cc3)on2)c1`, 70 µM (≈ 31.1 µg/mL). Same read-out and setting: as for `C[C@H](C#N)NC(=O)c1cccc(-c2cc(-c3ccc(CNC4CCOCC4)cc3)on2)c1`, the figure is 240 µM (≈ 103 µg/mL); as for `C[C@@H](C#N)NC(=O)c1cccc(-c2cc(-c3ccc(CNC4CCOCC4)cc3)on2)c1`, 110 µM (≈ 47.4 µg/mL).

(Values after ChEMBL document CHEMBL1681675, “3,5-diarylazoles as novel and selective inhibitors of protein kinase D” (Bioorg Med Chem Lett, 2011).)
